Data published in ChEMBL document CHEMBL3991601, “The target landscape of clinical kinase drugs” (Science, 2017).
Activity calls are given as the source filed them.

Key:
[1] = target: Tyrosine-protein kinase Yes (Homo sapiens, UniProt P07947)
[2] = target: cAMP-dependent protein kinase catalytic subunit alpha (Homo sapiens, UniProt P17612)
[3] = target: Serine/threonine-protein kinase B-raf (Homo sapiens, UniProt P15056)
[4] = target: Serine/threonine-protein kinase pim-1 (Homo sapiens, UniProt P11309)
[5] = target: T1, Phosphatidylinositol 5-phosphate 4-kinase type-2 gamma (Homo sapiens, UniProt Q8TBX8)
T1 sequence (Q8TBX8 whole entry): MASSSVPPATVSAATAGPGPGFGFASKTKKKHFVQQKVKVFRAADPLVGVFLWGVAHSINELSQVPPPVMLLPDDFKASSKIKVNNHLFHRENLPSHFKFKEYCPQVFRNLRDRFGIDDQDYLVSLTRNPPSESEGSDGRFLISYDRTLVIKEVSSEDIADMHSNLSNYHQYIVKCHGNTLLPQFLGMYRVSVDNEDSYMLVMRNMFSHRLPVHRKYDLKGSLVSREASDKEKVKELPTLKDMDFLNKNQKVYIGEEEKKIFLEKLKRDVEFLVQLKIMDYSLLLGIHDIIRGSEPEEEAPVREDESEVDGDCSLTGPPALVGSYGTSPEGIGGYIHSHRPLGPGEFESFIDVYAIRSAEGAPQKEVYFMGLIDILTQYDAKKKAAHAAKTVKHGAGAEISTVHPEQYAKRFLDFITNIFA

[6] = target: GTP-binding nuclear protein Ran (Homo sapiens, UniProt P62826)
[7] = target: Mitogen-activated protein kinase 7 (Homo sapiens, UniProt Q13164)
[8] = target: Cyclin-dependent kinase 4 (Homo sapiens, UniProt P11802)
[9] = target: T2, Serine/threonine-protein kinase ULK1 (Homo sapiens, UniProt O75385)
T2 sequence (O75385 whole entry): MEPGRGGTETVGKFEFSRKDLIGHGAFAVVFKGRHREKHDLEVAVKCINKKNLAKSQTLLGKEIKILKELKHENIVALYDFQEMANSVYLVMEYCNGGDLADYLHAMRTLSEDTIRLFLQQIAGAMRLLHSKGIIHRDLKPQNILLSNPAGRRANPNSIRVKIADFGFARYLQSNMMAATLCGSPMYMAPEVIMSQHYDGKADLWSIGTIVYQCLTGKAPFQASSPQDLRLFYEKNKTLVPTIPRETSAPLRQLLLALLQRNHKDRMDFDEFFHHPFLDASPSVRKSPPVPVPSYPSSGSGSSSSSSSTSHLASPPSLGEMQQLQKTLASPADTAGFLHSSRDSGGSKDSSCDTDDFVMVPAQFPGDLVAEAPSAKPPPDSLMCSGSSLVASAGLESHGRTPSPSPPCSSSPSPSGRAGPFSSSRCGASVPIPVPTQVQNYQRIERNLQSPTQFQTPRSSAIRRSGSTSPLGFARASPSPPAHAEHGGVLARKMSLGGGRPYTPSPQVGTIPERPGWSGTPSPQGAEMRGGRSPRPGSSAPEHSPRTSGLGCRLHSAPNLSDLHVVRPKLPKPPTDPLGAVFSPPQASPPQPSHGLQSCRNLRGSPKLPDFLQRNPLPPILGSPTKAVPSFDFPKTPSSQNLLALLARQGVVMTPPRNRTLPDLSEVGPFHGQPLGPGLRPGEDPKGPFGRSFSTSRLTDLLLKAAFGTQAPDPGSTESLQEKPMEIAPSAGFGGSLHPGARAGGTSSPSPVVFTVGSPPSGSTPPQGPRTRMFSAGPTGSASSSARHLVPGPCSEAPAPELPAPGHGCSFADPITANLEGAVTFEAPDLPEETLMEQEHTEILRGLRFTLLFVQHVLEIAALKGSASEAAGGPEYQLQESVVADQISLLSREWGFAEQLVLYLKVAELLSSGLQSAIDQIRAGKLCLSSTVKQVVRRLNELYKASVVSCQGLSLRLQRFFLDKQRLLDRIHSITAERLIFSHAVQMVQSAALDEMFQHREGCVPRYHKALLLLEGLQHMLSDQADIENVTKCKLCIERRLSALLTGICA

[10] = target: Mitogen-activated protein kinase 9 (Homo sapiens, UniProt P45984)
Ephrin type-B receptor 3 = target: T3, Ephrin type-B receptor 3 (Homo sapiens, UniProt P54753)
T3 sequence (P54753 whole entry): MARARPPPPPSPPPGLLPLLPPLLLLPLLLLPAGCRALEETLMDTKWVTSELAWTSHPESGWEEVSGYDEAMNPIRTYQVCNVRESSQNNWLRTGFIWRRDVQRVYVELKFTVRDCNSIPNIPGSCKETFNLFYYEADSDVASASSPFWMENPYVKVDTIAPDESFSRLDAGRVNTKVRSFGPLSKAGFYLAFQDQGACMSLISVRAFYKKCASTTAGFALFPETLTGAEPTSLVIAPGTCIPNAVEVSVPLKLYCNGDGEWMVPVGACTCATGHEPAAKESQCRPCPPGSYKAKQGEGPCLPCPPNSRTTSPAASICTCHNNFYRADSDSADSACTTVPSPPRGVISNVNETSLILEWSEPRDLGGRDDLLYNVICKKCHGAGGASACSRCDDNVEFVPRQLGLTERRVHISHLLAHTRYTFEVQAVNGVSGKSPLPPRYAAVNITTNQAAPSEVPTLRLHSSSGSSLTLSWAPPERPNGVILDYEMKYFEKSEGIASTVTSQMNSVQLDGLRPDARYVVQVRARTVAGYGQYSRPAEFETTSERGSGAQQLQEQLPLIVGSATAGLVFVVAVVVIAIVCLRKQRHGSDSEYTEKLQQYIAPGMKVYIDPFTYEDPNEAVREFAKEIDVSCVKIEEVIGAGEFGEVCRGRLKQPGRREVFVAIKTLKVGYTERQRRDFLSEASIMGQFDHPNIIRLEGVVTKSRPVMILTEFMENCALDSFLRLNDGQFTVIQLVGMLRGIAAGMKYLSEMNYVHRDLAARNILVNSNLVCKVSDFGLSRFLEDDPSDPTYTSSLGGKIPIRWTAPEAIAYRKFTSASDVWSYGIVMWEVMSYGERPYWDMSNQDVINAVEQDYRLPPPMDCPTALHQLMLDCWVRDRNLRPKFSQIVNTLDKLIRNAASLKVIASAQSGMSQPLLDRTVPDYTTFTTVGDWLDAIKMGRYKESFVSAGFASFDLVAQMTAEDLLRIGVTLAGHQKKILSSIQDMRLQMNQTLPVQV

[11] = target: Serine/threonine-protein kinase PAK 2 (Homo sapiens, UniProt Q13177)
Note: in the data inactive means no Kd found up to 30 µM.

Serine/threonine-protein kinase pim-1, sequence (P11309 whole entry): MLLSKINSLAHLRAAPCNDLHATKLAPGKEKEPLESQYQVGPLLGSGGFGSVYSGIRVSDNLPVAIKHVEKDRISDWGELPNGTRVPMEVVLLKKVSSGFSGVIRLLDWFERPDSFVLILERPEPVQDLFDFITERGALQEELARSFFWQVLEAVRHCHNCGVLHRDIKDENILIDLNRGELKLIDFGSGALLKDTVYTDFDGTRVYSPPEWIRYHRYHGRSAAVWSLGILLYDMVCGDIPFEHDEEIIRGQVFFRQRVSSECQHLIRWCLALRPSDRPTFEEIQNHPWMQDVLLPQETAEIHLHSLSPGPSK
Cyclin-dependent kinase 4, sequence (P11802 whole entry): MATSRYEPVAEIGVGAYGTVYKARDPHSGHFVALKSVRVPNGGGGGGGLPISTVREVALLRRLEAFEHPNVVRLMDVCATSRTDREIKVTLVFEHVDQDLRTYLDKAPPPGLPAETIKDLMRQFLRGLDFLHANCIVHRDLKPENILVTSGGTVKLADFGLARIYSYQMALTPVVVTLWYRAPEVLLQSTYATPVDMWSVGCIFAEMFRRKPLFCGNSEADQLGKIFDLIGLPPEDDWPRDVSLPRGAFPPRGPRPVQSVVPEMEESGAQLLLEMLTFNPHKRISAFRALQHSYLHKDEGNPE
Mitogen-activated protein kinase 9, sequence (P45984 whole entry): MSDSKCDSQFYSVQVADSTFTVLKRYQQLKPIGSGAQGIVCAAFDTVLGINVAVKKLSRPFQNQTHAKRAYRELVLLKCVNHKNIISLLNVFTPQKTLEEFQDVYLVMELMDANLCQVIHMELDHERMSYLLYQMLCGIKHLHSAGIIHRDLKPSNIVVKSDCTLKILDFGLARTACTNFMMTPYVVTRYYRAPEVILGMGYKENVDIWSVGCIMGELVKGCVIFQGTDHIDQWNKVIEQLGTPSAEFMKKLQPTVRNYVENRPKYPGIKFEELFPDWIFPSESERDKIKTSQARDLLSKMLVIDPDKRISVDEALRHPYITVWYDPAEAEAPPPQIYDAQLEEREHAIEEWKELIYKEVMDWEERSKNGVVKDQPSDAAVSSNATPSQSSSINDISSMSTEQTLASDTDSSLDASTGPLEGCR
Mitogen-activated protein kinase 7, sequence (Q13164 whole entry): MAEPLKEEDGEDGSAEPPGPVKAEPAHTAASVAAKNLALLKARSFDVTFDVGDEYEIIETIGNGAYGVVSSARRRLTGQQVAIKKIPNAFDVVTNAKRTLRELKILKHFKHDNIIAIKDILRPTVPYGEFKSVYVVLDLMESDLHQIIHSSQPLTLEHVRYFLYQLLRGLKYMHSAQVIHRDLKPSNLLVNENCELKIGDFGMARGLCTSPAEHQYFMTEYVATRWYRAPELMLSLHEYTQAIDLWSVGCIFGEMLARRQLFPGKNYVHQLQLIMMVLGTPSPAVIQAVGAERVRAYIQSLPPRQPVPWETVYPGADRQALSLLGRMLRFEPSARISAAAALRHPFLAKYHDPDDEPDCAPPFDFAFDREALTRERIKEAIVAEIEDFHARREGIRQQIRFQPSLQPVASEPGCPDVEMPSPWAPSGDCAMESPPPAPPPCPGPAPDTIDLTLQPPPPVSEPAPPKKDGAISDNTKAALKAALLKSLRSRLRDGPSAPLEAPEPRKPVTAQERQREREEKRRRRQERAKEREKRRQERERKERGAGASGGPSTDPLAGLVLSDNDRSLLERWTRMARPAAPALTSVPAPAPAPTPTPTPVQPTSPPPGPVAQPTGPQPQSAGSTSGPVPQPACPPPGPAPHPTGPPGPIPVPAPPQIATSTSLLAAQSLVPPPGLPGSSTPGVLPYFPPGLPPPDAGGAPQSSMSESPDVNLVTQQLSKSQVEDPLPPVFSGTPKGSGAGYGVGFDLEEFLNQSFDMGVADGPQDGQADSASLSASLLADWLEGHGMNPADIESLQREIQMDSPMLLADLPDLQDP
Tyrosine-protein kinase Yes, sequence (P07947 whole entry): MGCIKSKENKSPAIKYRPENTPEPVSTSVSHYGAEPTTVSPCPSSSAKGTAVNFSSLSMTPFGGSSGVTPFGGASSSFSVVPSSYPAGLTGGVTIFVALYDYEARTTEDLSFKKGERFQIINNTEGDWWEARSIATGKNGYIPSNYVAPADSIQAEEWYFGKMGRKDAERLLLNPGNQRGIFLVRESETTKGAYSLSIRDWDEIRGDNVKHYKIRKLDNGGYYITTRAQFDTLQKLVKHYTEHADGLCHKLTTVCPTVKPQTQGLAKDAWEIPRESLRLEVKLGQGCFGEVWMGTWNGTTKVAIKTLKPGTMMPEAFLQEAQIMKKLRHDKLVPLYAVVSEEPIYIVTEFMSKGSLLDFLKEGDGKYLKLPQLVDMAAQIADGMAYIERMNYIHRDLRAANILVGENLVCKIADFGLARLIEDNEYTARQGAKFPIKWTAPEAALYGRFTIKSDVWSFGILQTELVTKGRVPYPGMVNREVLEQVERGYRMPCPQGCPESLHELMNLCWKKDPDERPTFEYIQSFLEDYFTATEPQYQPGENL
Serine/threonine-protein kinase B-raf, sequence (P15056 whole entry): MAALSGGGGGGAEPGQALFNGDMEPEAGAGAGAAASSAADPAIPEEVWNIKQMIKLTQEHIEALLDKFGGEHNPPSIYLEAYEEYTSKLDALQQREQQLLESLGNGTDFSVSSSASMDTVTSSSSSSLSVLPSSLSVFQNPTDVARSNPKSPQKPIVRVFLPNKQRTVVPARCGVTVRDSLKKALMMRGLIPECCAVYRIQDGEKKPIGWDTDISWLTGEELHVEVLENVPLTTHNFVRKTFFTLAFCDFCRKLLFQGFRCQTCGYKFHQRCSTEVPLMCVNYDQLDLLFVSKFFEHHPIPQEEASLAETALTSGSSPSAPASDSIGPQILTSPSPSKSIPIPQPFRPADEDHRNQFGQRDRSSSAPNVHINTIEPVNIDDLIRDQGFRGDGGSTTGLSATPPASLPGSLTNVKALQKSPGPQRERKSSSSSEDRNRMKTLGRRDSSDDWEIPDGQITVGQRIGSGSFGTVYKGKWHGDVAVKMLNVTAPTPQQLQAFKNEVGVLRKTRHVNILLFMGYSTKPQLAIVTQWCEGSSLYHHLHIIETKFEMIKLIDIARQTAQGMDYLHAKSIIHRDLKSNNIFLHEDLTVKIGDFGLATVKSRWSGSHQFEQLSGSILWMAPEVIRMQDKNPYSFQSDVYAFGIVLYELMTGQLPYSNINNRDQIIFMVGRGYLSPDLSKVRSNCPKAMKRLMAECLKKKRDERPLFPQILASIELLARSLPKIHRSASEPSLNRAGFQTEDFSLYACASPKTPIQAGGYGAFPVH
Serine/threonine-protein kinase PAK 2, sequence (Q13177 whole entry): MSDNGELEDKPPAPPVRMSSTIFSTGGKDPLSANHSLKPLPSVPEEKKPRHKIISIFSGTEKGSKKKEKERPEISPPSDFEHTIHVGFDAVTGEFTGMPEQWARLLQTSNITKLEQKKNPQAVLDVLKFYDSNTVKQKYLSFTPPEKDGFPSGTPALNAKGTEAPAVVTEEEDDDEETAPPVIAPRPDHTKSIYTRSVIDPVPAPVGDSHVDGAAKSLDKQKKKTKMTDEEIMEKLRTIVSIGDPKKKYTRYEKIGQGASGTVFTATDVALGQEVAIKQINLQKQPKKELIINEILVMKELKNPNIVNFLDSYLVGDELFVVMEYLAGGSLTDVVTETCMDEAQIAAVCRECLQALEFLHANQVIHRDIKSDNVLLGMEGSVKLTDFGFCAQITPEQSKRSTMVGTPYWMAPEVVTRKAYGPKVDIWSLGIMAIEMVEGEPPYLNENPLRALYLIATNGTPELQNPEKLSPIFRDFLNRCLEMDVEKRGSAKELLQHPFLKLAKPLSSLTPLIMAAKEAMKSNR

Row | Structure (SMILES) | Kd [1] | Kd [2] | Kd [3] | Kd [4] | Kd [5] | Kd [6] | Kd [7] | Kd [8] | Kd [9] | Kd [10] | Kd (Ephrin type-B receptor 3) | Kd [11]
1 | Cc1c(NC(=O)OC[C@@H]2COCCN2)cn2ncnc(Nc3ccc4c(cnn4Cc4cccc(F)c4)c3)c12 [AC-480] | > 30 µM (inactive) | > 30 µM (inactive) | > 30 µM (inactive) | > 30 µM (inactive) | > 30 µM (inactive) | > 30 µM (inactive) | > 30 µM (inactive) | > 30 µM (inactive) | > 30 µM (inactive) | > 30 µM (inactive) | > 30 µM (inactive) | –
2 | CCOc1ccn(-c2ccc(F)cc2)c(=O)c1C(=O)Nc1ccc(Oc2ccnc(N)c2Cl)c(F)c1 [BMS-777607] | > 30 µM (inactive) | > 30 µM (inactive) | – | > 30 µM (inactive) | > 30 µM (inactive) | > 30 µM (inactive) | > 30 µM (inactive) | > 30 µM (inactive) | > 30 µM (inactive) | > 30 µM (inactive) | > 30 µM (inactive) | > 30 µM (inactive)
3 | COc1cc2ncnc(Nc3ccc(F)c(Cl)c3)c2cc1NC(=O)/C=C/CN1CCCCC1 [DACOMITINIB ANHYDROUS] | > 30 µM (inactive) | > 30 µM (inactive) | > 30 µM (inactive) | > 30 µM (inactive) | > 30 µM (inactive) | > 30 µM (inactive) | > 30 µM (inactive) | > 30 µM (inactive) | > 30 µM (inactive) | > 30 µM (inactive) | > 30 µM (inactive) | –
4 | Cc1c(Cn2c(C)nc3c(C(=O)O)cc(N4CCOCC4)cc32)cccc1C(F)(F)F [GSK-2636771] | > 30 µM (inactive) | > 30 µM (inactive) | > 30 µM (inactive) | > 30 µM (inactive) | > 30 µM (inactive) | > 30 µM (inactive) | > 30 µM (inactive) | > 30 µM (inactive) | > 30 µM (inactive) | > 30 µM (inactive) | > 30 µM (inactive) | –
5 | O=S(=O)(c1cccc2c(O)nccc12)N1CCCNCC1 [HYDROXYFASUDIL] | > 30 µM (inactive) | – | – | > 30 µM (inactive) | > 30 µM (inactive) | > 30 µM (inactive) | > 30 µM (inactive) | > 30 µM (inactive) | 23.3 µM (active) | > 30 µM (inactive) | > 30 µM (inactive) | > 30 µM (inactive)
6 | COc1cc2ncnc3c2cc1OCCCCCN(C)Cc1ccc(Br)cc1N3 [JNJ-26483327] | > 30 µM (inactive) | > 30 µM (inactive) | – | > 30 µM (inactive) | > 30 µM (inactive) | > 30 µM (inactive) | > 30 µM (inactive) | > 30 µM (inactive) | > 30 µM (inactive) | > 30 µM (inactive) | > 30 µM (inactive) | > 30 µM (inactive)
7 | Cc1ccc(C(=O)Nc2ccc(Oc3cc4cnn(C)c4cc3-c3cn[nH]c3)c(F)c2)c(=O)n1-c1ccc(F)cc1 [MERESTINIB] | > 30 µM (inactive) | > 30 µM (inactive) | – | > 30 µM (inactive) | > 30 µM (inactive) | > 30 µM (inactive) | > 30 µM (inactive) | > 30 µM (inactive) | > 30 µM (inactive) | > 30 µM (inactive) | > 30 µM (inactive) | > 30 µM (inactive)
8 | O=C(NOC[C@H](O)CO)c1ccc(F)c(F)c1Nc1ccc(I)cc1F [MIRDAMETINIB] | > 30 µM (inactive) | > 30 µM (inactive) | – | > 30 µM (inactive) | > 30 µM (inactive) | > 30 µM (inactive) | > 30 µM (inactive) | > 30 µM (inactive) | > 30 µM (inactive) | > 30 µM (inactive) | > 30 µM (inactive) | > 30 µM (inactive)

The next lines start with the values.

Row | Kd [1] | Kd [2] | Kd [3] | Kd [4] | Kd [5] | Kd [6] | Kd [7] | Kd [8] | Kd [9] | Kd [10] | Kd (Ephrin type-B receptor 3) | Kd [11] | Structure (SMILES)
9 | > 30 µM (inactive) | > 30 µM (inactive) | > 30 µM (inactive) | > 30 µM (inactive) | > 30 µM (inactive) | > 30 µM (inactive) | > 30 µM (inactive) | > 30 µM (inactive) | > 30 µM (inactive) | > 30 µM (inactive) | > 30 µM (inactive) | – | O=C(Nc1ccc(OC(F)(F)F)cc1)c1sccc1NCc1ccnc2ccccc12 [OSI-930]
10 | > 30 µM (inactive) | > 30 µM (inactive) | > 30 µM (inactive) | > 30 µM (inactive) | > 30 µM (inactive) | > 30 µM (inactive) | > 30 µM (inactive) | > 30 µM (inactive) | > 30 µM (inactive) | > 30 µM (inactive) | > 30 µM (inactive) | – | FC(F)(F)c1ccc(CNc2ccc(Cc3c[nH]c4ncc(Cl)cc34)cn2)cn1 [PEXIDARTINIB]
11 | > 30 µM (inactive) | > 30 µM (inactive) | – | > 30 µM (inactive) | > 30 µM (inactive) | > 30 µM (inactive) | > 30 µM (inactive) | > 30 µM (inactive) | > 30 µM (inactive) | > 30 µM (inactive) | > 30 µM (inactive) | > 30 µM (inactive) | C=CC(=O)Nc1cccc(Nc2nc(Nc3ccc(N4CCN(C(C)=O)CC4)cc3OC)ncc2C(F)(F)F)c1 [ROCILETINIB]
12 | – | > 30 µM (inactive) | – | > 30 µM (inactive) | > 30 µM (inactive) | > 30 µM (inactive) | – | > 30 µM (inactive) | – | > 30 µM (inactive) | > 30 µM (inactive) | > 30 µM (inactive) | CC(C)(O)CC(=O)NCCn1ccc2ncnc(Nc3ccc(Oc4cccc(C(F)(F)F)c4)c(Cl)c3)c21 [TAK-285]
13 | > 30 µM (inactive) | > 30 µM (inactive) | – | > 30 µM (inactive) | > 30 µM (inactive) | > 30 µM (inactive) | > 30 µM (inactive) | > 30 µM (inactive) | > 30 µM (inactive) | > 30 µM (inactive) | > 30 µM (inactive) | > 30 µM (inactive) | COc1cc2ncnc(Nc3ccc(O)cc3)c2cc1OC [WHI-P131]
